Our source for the % of control and % of inhibition values is ChEMBL document CHEMBL5465560, “Selectivity Literature for EUbOPEN Chemogenomic Library” (2024).

The target of experiment [1] is Insulin-like growth factor 1 receptor (Homo sapiens, UniProt P08069). Kind of experiment: Selectivity interaction (KinomeScan (DiscoverX)) EUB0000595a IGF1R. The following applies: at 10 µM.
The target of experiment [2] is T1, Ephrin type-B receptor 6 (Homo sapiens) (UniProt O15197).
T1 sequence (whole entry): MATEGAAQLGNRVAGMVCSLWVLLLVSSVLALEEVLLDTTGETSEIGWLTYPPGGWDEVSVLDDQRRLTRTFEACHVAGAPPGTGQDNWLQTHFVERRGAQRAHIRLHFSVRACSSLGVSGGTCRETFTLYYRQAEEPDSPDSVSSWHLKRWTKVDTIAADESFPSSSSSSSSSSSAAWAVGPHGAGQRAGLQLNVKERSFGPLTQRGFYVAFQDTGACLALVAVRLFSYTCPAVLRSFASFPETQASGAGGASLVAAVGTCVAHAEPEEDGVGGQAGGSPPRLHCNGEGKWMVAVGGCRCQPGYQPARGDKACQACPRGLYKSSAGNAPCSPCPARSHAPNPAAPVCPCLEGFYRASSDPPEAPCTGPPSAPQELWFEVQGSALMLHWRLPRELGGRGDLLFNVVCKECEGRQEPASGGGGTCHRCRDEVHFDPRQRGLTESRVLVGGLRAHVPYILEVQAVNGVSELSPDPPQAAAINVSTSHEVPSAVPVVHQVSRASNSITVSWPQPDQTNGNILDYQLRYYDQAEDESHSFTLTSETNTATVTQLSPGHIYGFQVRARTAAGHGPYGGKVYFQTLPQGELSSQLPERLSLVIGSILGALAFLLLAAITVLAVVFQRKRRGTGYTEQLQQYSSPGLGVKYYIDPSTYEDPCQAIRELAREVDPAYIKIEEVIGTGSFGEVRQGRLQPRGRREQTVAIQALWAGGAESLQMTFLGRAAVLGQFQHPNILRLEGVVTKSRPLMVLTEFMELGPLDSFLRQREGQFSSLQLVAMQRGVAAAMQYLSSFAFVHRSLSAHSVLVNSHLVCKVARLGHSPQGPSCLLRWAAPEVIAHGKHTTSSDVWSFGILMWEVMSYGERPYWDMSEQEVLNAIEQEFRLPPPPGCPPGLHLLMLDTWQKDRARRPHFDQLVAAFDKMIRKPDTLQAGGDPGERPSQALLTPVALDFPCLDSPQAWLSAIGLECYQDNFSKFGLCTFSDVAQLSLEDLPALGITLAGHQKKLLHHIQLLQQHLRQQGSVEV
Kind of experiment: Selectivity interaction (KinomeScan (DiscoverX)) EUB0000595a EPHB6. The following applies: at 10 µM.

In experiment [3] the target is T2, TGF-beta receptor type-1 (Homo sapiens) (UniProt P36897).
T2 sequence (whole entry): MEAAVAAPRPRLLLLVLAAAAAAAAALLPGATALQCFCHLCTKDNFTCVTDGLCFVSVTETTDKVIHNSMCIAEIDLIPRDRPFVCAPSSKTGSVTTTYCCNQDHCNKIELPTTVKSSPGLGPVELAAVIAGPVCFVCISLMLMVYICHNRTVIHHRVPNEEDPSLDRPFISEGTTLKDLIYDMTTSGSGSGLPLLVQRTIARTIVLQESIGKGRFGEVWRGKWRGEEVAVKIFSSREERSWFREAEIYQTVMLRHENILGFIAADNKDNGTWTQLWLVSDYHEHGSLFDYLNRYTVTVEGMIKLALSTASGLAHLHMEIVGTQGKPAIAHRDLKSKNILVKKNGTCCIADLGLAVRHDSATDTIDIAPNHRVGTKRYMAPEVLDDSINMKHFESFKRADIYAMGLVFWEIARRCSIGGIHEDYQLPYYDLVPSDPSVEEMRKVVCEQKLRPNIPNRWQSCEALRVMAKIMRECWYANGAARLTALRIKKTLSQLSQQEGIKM
The experiment is described as follows: Selectivity interaction (KinomeScan (DiscoverX)) EUB0000695a TGFBR1. To be noted: at 100 nM.

Experiment [4] addresses Protein kinase C gamma type (Homo sapiens) (UniProt P05129). Kind of experiment: Selectivity interaction (SelectScreen profiling (Invitrogen)) EUB0000607a PRKCG. The following applies: at 2 µM.
In experiment [5] the target is Tyrosine-protein kinase ABL2 (Homo sapiens, UniProt P42684). The experiment is described as follows: Selectivity interaction (Kinase panel (Invitrogen)) EUB0000639a ABL2. The following applies: at 200 nM.
Sequence of Tyrosine-protein kinase ABL2 (P42684 whole entry): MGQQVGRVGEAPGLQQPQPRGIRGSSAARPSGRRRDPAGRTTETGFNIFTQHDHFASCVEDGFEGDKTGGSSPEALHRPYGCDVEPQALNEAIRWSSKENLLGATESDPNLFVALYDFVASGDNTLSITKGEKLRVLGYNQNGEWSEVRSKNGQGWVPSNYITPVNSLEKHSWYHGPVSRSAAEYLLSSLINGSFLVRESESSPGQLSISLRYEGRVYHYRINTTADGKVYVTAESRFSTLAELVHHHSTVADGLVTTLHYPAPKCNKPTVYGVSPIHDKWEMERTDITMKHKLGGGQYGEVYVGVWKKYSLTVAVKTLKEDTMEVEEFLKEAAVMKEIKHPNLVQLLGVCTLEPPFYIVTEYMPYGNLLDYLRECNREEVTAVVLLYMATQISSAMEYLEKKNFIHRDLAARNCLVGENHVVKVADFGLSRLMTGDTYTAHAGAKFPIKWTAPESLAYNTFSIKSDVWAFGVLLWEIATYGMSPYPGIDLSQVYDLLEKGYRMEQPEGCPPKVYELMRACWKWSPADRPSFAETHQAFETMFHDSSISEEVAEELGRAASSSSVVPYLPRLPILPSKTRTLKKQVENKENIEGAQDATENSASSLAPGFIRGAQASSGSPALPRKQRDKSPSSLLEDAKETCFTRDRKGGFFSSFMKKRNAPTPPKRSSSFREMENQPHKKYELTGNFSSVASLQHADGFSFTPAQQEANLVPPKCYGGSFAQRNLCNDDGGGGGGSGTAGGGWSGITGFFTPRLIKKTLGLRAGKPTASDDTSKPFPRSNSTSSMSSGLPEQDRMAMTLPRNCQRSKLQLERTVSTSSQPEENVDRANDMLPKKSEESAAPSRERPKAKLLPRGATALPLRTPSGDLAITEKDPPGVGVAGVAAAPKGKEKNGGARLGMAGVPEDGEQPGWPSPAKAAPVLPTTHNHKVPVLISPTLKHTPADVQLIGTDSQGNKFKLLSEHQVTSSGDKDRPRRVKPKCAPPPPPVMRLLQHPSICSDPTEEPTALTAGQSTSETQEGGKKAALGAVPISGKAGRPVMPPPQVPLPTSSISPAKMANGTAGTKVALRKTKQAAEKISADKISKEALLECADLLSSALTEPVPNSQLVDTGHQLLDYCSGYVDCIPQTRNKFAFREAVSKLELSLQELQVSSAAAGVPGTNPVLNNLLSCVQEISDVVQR
Experiment [6] deals with Mitogen-activated protein kinase kinase kinase 11 (Homo sapiens) (UniProt Q16584). The experiment is described as follows: Selectivity interaction (ActivX KiNativ screen (kinase selectivity in THP-1 cell lysates)) EUB0000639a MAP3K11. It counts as subcellular. To be noted: lysate.
Sequence of Mitogen-activated protein kinase kinase kinase 11 (Homo sapiens) (Q16584 whole entry, looked up): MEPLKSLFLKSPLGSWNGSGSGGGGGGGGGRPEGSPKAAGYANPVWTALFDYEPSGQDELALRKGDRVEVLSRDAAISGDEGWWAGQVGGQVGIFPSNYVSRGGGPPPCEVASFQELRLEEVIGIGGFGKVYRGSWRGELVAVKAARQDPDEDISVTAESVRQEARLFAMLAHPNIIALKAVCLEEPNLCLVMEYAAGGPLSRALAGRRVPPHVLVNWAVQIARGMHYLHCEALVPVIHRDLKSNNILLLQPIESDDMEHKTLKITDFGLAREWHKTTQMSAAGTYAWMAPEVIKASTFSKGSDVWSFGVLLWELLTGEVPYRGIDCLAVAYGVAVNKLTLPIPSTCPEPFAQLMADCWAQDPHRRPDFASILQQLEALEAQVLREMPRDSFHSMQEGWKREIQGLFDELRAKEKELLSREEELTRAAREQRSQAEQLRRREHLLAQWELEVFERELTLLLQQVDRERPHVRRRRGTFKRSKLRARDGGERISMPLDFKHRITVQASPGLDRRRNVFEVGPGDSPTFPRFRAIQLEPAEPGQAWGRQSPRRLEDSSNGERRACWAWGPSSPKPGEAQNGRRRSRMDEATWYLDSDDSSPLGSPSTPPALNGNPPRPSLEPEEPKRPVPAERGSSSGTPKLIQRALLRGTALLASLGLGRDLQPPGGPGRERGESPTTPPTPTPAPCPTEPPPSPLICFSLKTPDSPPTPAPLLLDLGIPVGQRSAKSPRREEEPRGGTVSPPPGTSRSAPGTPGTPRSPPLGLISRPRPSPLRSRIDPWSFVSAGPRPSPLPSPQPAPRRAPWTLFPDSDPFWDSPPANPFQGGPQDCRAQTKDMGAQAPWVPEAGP

Sequence of Insulin-like growth factor 1 receptor (P08069 31-736 limits assumed): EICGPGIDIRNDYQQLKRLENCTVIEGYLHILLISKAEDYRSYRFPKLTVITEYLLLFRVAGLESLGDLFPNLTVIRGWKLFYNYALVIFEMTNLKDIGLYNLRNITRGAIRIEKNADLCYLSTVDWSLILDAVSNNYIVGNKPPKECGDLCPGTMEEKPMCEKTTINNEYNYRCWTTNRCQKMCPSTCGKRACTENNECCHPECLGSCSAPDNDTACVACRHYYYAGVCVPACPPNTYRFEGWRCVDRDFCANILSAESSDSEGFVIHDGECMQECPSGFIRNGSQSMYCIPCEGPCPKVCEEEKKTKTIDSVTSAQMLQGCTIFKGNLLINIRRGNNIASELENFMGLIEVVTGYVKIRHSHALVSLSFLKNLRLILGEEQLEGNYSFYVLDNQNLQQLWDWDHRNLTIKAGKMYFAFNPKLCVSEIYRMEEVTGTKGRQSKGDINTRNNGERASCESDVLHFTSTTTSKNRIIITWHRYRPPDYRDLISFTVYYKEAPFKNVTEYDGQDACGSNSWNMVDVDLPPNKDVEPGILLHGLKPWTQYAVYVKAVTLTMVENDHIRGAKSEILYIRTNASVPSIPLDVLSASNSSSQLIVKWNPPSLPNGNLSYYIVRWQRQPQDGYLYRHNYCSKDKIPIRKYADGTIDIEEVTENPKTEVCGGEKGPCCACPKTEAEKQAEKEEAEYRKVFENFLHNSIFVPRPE
Sequence of Insulin-like growth factor 1 receptor (P08069 741-1367 limits assumed): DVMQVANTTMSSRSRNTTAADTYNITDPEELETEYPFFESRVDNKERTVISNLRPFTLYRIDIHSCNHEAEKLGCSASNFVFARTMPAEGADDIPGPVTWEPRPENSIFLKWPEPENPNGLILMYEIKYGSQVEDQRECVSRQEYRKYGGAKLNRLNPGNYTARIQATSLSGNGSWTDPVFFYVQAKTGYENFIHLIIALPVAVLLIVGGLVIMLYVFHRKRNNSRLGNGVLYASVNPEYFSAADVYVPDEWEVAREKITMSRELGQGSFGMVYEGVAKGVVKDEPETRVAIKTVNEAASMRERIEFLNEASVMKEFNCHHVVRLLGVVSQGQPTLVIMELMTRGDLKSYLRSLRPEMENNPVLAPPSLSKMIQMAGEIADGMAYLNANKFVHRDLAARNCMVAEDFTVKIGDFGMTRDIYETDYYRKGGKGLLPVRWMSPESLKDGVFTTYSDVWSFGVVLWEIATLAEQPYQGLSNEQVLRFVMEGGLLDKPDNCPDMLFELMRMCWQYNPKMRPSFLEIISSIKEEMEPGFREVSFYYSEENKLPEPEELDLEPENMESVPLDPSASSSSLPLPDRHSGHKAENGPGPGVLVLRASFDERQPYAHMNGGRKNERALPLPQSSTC

For `COCC(=O)NC/C=C/c1ccc2ncnc(Nc3ccc(Oc4ccc(C)nc4)c(C)c3)c2c1` [CP-724714], the values for the % of control in experiment [1] and in experiment [2] were 83% and 74%, respectively.
On to `Cc1cc(F)c(C(=O)Nc2cccc(-c3nncn3C(C)C)n2)cc1-n1cnc(C2CC2)c1`, for which, in experiment [3], the % of control is 90%.
On to `CNC(=O)Nc1ccc(-c2nc(N3CC4CCC(C3)O4)c3cnn(C4CCC5(CC4)OCCO5)c3n2)cc1`, for which the % of inhibition in experiment [4] was found to be 11%.
Take `CC[C@@H]1[C@H](F)C(=O)N[C@@H]1COc1nccc2cc(C(N)=O)c(OC)cc12` [ZIMLOVISERTIB]: the % of inhibition in experiment [5] is -0.467%; in experiment [6] (at 0.01 µM), 3.8%; in experiment [6] (at 0.04 µM) it was -0.9%; in experiment [6] (at 0.2 µM), 5%; in experiment [6] (at 1 µM) it was 8.5%; in experiment [6] (at 5 µM), 17%.
